This is an account of results in US7691860B2, “Sulfonamide derivatives” (Banyu Pharmaceutical Co., Ltd., priority 2004, dated 2010).

One may read the pIC50 as the negative decadic logarithm of the IC50, by convention in mol/L.

Each structure is given as a SMILES string. pIC50: −log10 of the molar value.

The assay concerns the target T1, human NPY Y5 receptor (Homo sapiens, UniProt Q15761).
T1 construct: expressed in transfected cells; host or cells: COS-7, CHO and LM(tk-)
T1 sequence (Q15761 1-445): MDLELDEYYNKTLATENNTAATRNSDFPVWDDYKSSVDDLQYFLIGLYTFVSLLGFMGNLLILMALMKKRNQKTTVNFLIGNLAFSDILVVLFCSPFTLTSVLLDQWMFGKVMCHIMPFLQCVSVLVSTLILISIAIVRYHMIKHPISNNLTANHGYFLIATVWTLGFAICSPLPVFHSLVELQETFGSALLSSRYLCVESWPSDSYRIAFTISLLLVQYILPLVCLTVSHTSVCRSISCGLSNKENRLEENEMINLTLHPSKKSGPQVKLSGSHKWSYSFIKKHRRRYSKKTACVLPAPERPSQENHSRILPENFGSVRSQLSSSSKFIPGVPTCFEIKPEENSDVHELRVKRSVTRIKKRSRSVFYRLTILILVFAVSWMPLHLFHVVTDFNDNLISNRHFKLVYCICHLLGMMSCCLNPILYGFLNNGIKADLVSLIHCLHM
Kind of assay: NPY binding inhibition test ([125I]peptide YY binding to membranes of NPY Y5 receptor expressing cells). As to conditions: membrane sample of NPY Y5 receptor expressed cells, 25° C., 2 hours, read-out: IC50 against specific peptide YY binding. An excerpt: The cDNA sequence (refer to the specification of WO 96/16542) encoding human NPY Y5 receptor was cloned into the expression vectors, pcDNA3, pRc/RSV (supplied by Invitrogen Co.) and pCI-neo (supplied by Promega Co.). The resultant expression vectors were transfected into the host cells, COS-7, CHO and LM(tk−) (American Type Culture Collection) using the cationic lipid method (refer to Proceedings of the National Academy of Sciences of the United States of America, vol. 84, pp. 7413 (1987)) to give NPY Y5 receptor expression cells. A membrane sample prepared from the NPY Y5 receptor expressed cells was incubated together with a test compound and 20,000 cpm of [^125I]peptide YY (supplied by NEN Co.) in an assay buffer (25 mM Tris buffer, pH 7.4, containing 10 mM of magnesium chloride, 1 mM of phenylmethylsulfonyl fluoride, 0.1% bacitracin and 0.5% bovine serum albumin) at 25° C. for 2 hours, followed by filtration through glassfilter GF/C. After washing with 5 mM Tris buffer (pH7.4) containing 0.3% BSA, radioactivity of the cake on the filter was measured. Non-specific binding was measured in the presence of 1 μM of peptide YY, and a 50% Inhibition Concentration (IC50 value) of the test compound against specific peptide YY binding was determined (refer to Endocrinology, vol. 131, pp. 2090 (1992)).
Regarding `CC(C)(C)S(=O)(=O)N[C@H]1CC[C@H](c2nc3nc(-c4ccc(F)cc4)ncc3[nH]2)CC1` [Example 7, 8-(trans-4-tert-butylsulfonylamino-cyclohexyl)-2-(4-fluorophenyl)purine], the pIC50 was 8.92.

As for `CC(C)(C)S(=O)(=O)NC1CCN(c2nc3ccc(-c4ccccc4)cc3[nH]2)CC1` [Example 17, 2-(4-tert-butylsulfonylaminopiperidin-1-yl)-5-phenylbenzimidazole], the pIC50 is 8.82.

As for `CC(C)(C)S(=O)(=O)N[C@H]1CC[C@H](c2nc3nc(-c4ccccc4F)ccc3[nH]2)CC1` [Example 4, 2-(trans-4-tert-butylsulfonylamino-cyclohexyl)-5-(2-fluorophenyl)imidazo[4,5-b]pyridine], the pIC50 was 8.85.

As for `CS(=O)(=O)Nc1ccccc1N1CCN(c2nc3nc(-c4ccccc4)ncc3[nH]2)CC1` [Example 22, 8-{1-(2-methylsulfonylaminophenyl)piperazin-4-yl}-2-phenylpurine], the pIC50 is 8.77.

In the case of `CC(C)(C)S(=O)(=O)N[C@H]1CC[C@H](c2nc3ccc(-c4ccccc4)cc3[nH]2)CC1` [Example 3, 2-(trans-4-tert-butylsulfonylamino-cyclohexyl)-5-phenylbenzimidazole], the negative-log IC50 (pIC50) was 9.17.

With `CC(C)(C)S(=O)(=O)N[C@H]1CC[C@H](c2nc3nc(-c4ccccc4)ncc3[nH]2)CC1` [Example 9, 8-(trans-4-tert-butylsulfonylamino-cyclohexyl)-2-phenylpurine], the pIC50 was 8.80.
